Patent publication US9546179B2, “Heterocycle amido alkyloxy substituted quinazoline derivative and use thereof” (priority 2011, dated 2017)
Marks after values point to notes of the source that are not given here.

What was measured:
[1] = system: Human lung cancer cells (A549); assay: Anticancer effect in vitro on A549 cells (MTT, GI50); assay type: cell-based; conditions: A549, 72 hours
Procedure: The inhibitory effect on the cancer cells of the compounds prepared in Example 1-Example 13, Example 20, Example 48, Example 49 and Example 57 was determined in vitro using cancer cells. The results are shown in table 2, and the specific detection methods are as follows:
Human lung cancer cells were (A549, purchased from Shanghai FuMeng Gene Bio-technology Co., Ltd.) cultured in DMEM containing 2 m M/L-glutamine and 10% FBS, and inoculated in 96-well plate, 200 μL/well and 2000 cells per well; the plate was preincubated for 24 hours under the condition of 5% CO2 and 100% relative humidity at 37° C., allowing for cell adherence.
When the cells adhered, the supernatant was removed, and 200 μL drug-containing culture medium was added with different concentration of compounds into each well (in concentration of 20 μg/ml, 12.5 µg/ml, 6.25 μg/ml, […], 1.5625 μg/ml and 0.78125 μg/ml), 3 multiple wells were set up for each drug concentration as well as blank control (cell culture medium without cells), and drug-free control (with no drugs, filled with complete medium in equal amount only), cultured for 72 hours under the condition of 5% CO2 incubator at 37° C. (100% relative humidity).
After the culture ended, the supernatant was carefully removed, and adding 200 μl DMEM culture medium containing 3% FBS with 500 μg/ml MTT into each well, and culturing for 4 hours under the condition of 5% CO2 incubator at 37° C. (100% relative humidity). After the supernatant was discarded, 150 μL DMSO was added in each well for solving. the GI50 value was measured by detecting the absorbance in the 570 nm wavelength.

[2] = system: human lungs cancer cell strain A549; assay: Tumor inhibitory effect on nude mice bearing A549 tumors; assay type: in vivo
Procedure: After digesting and detaching the monolayer-cultured human lungs cancer cell strain A549 (purchased from Shanghai FuMeng Gene Bio-technology Co., Ltd.), cells were collected and resuspended in the serum-free culture medium, and the concentration was adjusted to be 2×10^6/0.2 mL. 0.2 mL cell suspension was taken by injector and transplanted under the skin of square scapula behind left armpit of nude mice, 0.2 mL for each mouse. The tumor volume was measured every 2 or 3 days. The nude mice bearing tumors which rapidly grew without any diabrosis were selected after two weeks. Under the condition of asepsis, the tumors were removed, and cut into tumor tissue with the diameter of approximately 2-3 mm, and then inoculate the tissue under the skin of square scapula behind left armpit of nude mice by trocar. After repetition in three generations, the nude mice received administration randomly in groups excluding the ones bearing too large or too small tumors, when the tumor grew to be about 100 mm^3 in volume.
The selected animals were 6-week old BALB/C nude mice. The male mice were 20-22 g in weight and provided by Shanghai Laboratory Animal Center (SIPPR BK) (production permit No. SCXK (Hu) 2008-0016). The experimental period was totally 111 days.
The experiment was randomly divided into 2 groups, the negative control group consisting of 12 mice (solvent administration only) and treatment group consisting of 12 mice (compound C, 100 mg/kg).
Ethanol was used as cosolvent to promote dissolution of compound C, adding 0.5 w/v % carboxymethyl cellulose to form suspension with a 0.5% final concentration of carboxymethyl cellulose and a 10 w/v % final concentration of ethanol, and then, using ultrasound to form uniform suspension. The dosage for intragastric administration was 0.1 ml/10 g, and the negative control group was only subjected to the same solvent. On the first day of experiment, compound C was given 100 mg/kg in the morning and in the evening respectively, and afterwards, 100 mg/kg was given in every morning only. The negative control group was only given 0.1 ml/10 g of 10 v/v % ethanol 0.5 w/v % carboxymethyl cellulose in every morning.
Index: observing state of animals and measuring body weight daily; measuring tumors by calipers every two days. Sacrifice the animal in 24 hours after the last administration and measure the volume and size of tumor. Dissecting the animal and removing the tumor; weighing the tumor and nude mice; and then, drawing the curves of tumor volume and growth, nude mouse weight, tumor inhibition rate and animal death rate.
Tumor diameter measurement is used to observe the antitumor effect of the test substances dynamically. The formula for tumor volume (TV) calculation is: v=0.5×a×b^2(mm^3); wherein, a and b stand for length and width respectively.
The relative tumor volume (RTV) is calculated according to the measurement result; RTV=Vt/V0, wherein V0 is the tumor volume measured at the beginning of administration (i.e. d0) and Vt is the tumor volume at each measurement.
The index to evaluate antitumor activity is relative tumor proliferation rate T/C (%)
In the above formula, TRTV: RTV of treatment group, CRTV: RTV of negative control group.

[3] = target: T1, receptor tyrosine kinase EGFR (Homo sapiens, UniProt P00533); assay: Inhibitory effect on receptor tyrosine kinase EGFR (ELISA, Poly(Glu, Tyr)4:1, PY99 antibody); assay type: biochemical; conditions: ATP 4 μM, 1 hour at 37° C.
T1 construct: purchased Shanghai 3bio Technology Co., Ltd. Lot No. 4018780925
T1 sequence (P00533 25-1210): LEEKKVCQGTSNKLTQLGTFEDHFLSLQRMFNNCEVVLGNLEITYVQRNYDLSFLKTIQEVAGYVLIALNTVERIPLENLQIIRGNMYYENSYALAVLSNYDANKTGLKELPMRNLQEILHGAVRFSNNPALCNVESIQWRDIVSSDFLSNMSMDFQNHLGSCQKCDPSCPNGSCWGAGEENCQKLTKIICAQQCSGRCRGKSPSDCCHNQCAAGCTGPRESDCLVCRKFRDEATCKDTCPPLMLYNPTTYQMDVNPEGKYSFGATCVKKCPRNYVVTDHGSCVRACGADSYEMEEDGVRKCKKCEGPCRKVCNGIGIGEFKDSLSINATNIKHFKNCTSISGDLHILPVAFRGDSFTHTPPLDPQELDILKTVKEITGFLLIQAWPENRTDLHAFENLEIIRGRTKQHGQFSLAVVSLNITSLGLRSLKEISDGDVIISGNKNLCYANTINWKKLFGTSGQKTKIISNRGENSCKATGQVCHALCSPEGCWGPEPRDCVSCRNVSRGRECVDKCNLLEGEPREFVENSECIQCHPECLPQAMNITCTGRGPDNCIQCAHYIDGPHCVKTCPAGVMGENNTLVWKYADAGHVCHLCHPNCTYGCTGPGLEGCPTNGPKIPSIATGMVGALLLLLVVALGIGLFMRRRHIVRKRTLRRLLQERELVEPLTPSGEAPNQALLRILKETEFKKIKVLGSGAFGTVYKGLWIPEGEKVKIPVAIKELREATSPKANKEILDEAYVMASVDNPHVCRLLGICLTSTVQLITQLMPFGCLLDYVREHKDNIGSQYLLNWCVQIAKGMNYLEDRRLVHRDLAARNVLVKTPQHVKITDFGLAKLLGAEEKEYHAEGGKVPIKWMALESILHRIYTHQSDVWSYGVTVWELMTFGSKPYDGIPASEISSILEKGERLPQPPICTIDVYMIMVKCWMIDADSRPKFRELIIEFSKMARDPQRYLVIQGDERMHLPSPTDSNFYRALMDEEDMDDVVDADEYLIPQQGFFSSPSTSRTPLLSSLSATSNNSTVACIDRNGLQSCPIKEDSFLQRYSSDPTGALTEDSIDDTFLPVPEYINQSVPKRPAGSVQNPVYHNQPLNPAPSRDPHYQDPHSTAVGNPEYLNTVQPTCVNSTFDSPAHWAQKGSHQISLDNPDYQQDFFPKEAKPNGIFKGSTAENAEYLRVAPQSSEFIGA
Outline: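 Poly(Glu,Tyr)4:1-coated plates; kinase reaction with 4 μM ATP and compound at 1.0000–0.00024 μg/ml, run 1 h at 37 °C. Phosphotyrosine detected with PY99 and HRP anti-mouse IgG, OPD colour read at A492, and inhibition rate calculated.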

[4] = A549 in nude mice, 100 mg/kg intragastric, 21st day after administration

| Structure (SMILES) | GI50 [1] [µM] | IC50 [3] [µM] | further results |
| --- | --- | --- | --- |
| COc1cc2ncnc(Nc3ccc(F)c(Cl)c3)c2cc1OCCCN1CCC2(COC2)C1 [Example 2, 4-(3′-chloro-4′-fluorophenylamino)-6-[3-(2-oxa-6-azaspiro[3.4]octane-6-yl)-propoxy]-7-methoxyquinazoline] | 20.4 |  | body weight of the nude mice compared with the control group ([2]; 100 mg/kg intragastric, FIG. 1): consistent fluctuation; average tumor weight compared with the negative group ([2]; 21st day after administration, 100 mg/kg, P<0.05): less than the negative group; Tumor mass [2, 4]: 0.55 ± 0.43 g; Tumor volume [2, 4]: 515.4 ± 388.0** mm^3; Tumor inhibition rate ([2]; A549 in nude mice, 100 mg/kg intragastric, from tumor weight): 47.62%; T/C % ([2]; A549 in nude mice, 100 mg/kg intragastric, relative tumor proliferation rate): 43.44%; RTV ([2]; A549 in nude mice, 100 mg/kg intragastric, relative tumor volume Vt/V0): 4.57 ± 2.11; tumor volume and size compared with the control group ([2]; two weeks after administration, 100 mg/kg, p<0.05, FIG. 2): significantly less than the control group |
| COc1cc2ncnc(Nc3ccc(F)c(Cl)c3)c2cc1OCCN1CCC2(CCOC2)C1 (centres unmarked) [Example 8, 4-(3′-chloro-4′-fluorophenylamino)-6-[2-(2-oxa-7-azaspiro[4.4]nonane-7-yl)-oxethyl]-7-methoxyquinazoline] | 23.4 | 0.01 to 0.1 |  |
| COc1cc2ncnc(Nc3ccc(F)c(Cl)c3)c2cc1OCCCN1CCC2(CCOCC2)C1 [Example 9, 4-(3′-chloro-4′-fluorophenylamino)-6-[3-(8-oxa-2-azaspiro[4.5]decane-2-yl)-propoxy]-7-methoxyquinazoline] | 24.3 | 0.01 to 0.1 |  |
| COc1cc2ncnc(Nc3ccc(F)c(Cl)c3)c2cc1OCCN1CC2CCC(C1)O2 [Example 11, 4-(3′-chloro-4′-fluorophenylamino)-6-[2-(8-oxa-3-azabicyclo[3.2.1]octane-3-yl)-oxethyl]-7-methoxyquinazoline] | 26.6 | 0.1 to 1 |  |
| COc1cc2ncnc(Nc3ccc(F)c(Cl)c3)c2cc1OCCN1CCC2(CC1)COC2 [Example 6] | 20.7 | 0.01 to 0.1 |  |
